From ChEMBL document CHEMBL4811216, “Chemotherapy for human schistosomiasis: how far have we come? What's new? Where do we go from here?” (RSC Med Chem, 2020)

Legend:
Schistosoma mansoni [1] = experiment: Antischistosomal activity against Schistosoma mansoni Puerto-Rican infected in BALB/c mouse assessed as worm burden reduction at 300 mg/kg, po BID administered for 2 consecutive days by light microscopic method relative to control; format: functional; set-up: scale not given: the % may be the effect or the level left
Schistosoma mansoni [2] = experiment: Schistosomicidal-activity against Schistosoma mansoni Puerto-Rican schistosomula incubated for 7 days by trypan blue dye-exclusion test; format: functional, organism-based; conditions: 168 h
Histone deacetylase 8 [3] = biological target: T1, Histone deacetylase 8 (Homo sapiens, UniProt Q9BY41); experiment: Inhibition of human HDAC8 using Fluor de Lys as substrate incubated for 90 mins by fluorescence method
T1 sequence (Q9BY41 whole entry): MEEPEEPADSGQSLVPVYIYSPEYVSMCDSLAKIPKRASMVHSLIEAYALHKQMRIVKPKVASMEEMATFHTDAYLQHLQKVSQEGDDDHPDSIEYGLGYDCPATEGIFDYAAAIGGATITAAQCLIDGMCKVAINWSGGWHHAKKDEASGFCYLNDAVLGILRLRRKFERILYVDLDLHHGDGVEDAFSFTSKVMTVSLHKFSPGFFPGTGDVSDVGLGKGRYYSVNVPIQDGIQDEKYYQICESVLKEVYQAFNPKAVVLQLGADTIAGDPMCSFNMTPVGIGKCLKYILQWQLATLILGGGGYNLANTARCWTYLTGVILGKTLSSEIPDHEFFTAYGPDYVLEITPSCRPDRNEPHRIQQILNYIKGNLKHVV

[4] = biological target: T2, Protein deacetylase HDAC6 (Homo sapiens, UniProt Q9UBN7); experiment: Inhibition of human HDAC6 using ZMAL(Cbz-(Ac)Lys-AMC as substrate preincubated for 90 mins followed by trypsin addition and measured after 20 mins by fluorimetric method
T2 sequence (Q9UBN7 whole entry): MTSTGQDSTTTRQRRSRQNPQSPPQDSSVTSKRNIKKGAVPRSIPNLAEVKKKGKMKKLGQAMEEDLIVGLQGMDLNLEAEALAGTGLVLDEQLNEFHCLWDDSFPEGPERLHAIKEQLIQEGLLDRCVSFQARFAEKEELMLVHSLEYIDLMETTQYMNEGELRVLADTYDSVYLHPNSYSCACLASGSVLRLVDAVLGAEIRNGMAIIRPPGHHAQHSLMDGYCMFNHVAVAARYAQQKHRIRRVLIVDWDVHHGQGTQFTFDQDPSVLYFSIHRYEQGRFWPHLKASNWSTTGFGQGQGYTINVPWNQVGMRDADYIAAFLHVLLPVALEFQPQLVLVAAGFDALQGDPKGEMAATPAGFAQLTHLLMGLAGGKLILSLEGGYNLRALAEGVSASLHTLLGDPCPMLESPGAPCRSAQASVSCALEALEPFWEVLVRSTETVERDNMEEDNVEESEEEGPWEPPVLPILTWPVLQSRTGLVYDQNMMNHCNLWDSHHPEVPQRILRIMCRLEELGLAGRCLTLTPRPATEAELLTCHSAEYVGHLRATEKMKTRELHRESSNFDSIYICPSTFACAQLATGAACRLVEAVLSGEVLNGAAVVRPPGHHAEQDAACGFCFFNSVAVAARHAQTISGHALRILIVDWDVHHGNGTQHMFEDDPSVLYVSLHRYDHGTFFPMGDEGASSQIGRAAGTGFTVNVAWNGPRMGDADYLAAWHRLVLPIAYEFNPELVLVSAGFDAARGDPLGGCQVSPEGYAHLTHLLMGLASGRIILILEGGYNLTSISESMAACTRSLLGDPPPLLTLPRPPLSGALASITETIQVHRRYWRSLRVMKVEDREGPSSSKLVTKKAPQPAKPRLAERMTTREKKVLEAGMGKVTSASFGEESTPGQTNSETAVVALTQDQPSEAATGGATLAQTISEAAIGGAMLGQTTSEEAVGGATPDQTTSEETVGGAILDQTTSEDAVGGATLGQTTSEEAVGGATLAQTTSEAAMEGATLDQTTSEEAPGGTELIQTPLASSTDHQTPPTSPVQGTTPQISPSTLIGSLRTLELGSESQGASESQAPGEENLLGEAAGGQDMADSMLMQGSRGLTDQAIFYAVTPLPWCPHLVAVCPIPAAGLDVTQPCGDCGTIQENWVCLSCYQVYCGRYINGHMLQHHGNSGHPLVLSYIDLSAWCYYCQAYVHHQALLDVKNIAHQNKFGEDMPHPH

Schistosoma mansoni [5] = experiment: Schistosomicidal-activity against Schistosoma mansoni schistosomula at 20 uM incubated for 48 hrs by Alamar Blue assay relative to control; format: functional
Histone deacetylase 1 = Histone deacetylase 1 (Homo sapiens, UniProt Q13547); experiment: Inhibition of human HDAC1 (1 to 482 reidue) expressed in sf9 cells using ZMAL(Cbz-(Ac)Lys-AMC as substrate preincubated for 90 mins followed by trypsin addition and measured after 20 mins by fluorimetric method
Sequence of Histone deacetylase 1 (Q13547 whole entry): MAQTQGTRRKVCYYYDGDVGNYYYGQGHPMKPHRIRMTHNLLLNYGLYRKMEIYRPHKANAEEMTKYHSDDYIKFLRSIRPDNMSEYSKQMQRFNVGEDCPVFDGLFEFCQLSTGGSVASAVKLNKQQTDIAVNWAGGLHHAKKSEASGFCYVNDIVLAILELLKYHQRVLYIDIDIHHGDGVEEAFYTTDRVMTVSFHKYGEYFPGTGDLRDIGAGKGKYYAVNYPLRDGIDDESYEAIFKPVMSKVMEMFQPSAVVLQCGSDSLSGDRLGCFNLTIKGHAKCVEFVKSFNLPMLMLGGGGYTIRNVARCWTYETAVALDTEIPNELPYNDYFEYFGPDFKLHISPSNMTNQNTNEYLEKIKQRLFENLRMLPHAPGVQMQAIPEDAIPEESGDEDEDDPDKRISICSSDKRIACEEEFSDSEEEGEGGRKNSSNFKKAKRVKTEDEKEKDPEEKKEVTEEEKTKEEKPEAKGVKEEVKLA

Schistosoma mansoni [6] = experiment: Schistosomicidal-activity against Schistosoma mansoni schistosomula incubated for 48 hrs by Alamar Blue assay; format: functional, organism-based
Histone deacetylase 8 [7] = biological target: T3, Histone deacetylase 8 (Schistosoma mansoni, UniProt A5H660); experiment: Inhibition of Schistosoma mansoni HDAC8 expressed in Escherichia coli using Fluor de Lys as substrate incubated for 90 mins by fluorescence method
T3 sequence (A5H660 whole entry): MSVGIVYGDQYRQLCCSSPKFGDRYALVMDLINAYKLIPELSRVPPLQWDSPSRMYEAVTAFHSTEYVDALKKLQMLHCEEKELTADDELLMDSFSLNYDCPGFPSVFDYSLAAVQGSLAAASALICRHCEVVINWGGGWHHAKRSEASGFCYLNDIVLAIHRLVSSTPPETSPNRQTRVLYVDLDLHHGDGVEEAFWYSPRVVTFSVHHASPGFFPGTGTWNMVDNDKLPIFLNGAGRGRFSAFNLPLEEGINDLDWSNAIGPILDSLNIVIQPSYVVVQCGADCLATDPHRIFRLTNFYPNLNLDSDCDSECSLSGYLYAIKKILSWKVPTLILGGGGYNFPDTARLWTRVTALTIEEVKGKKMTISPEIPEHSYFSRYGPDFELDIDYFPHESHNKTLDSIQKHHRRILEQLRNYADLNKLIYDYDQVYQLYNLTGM

Schistosoma mansoni [8] = experiment: Antischistosomal activity against Schistosoma mansoni infected in NMRI mouse assessed as worm burden reduction at 100 mg/kg, po administered as single dose relative to control; format: functional; set-up: scale not given: the % may be the effect or the level left
Histone deacetylase 8 [9] = biological target: T1, Histone deacetylase 8; experiment: Inhibition of human HDAC8 using Fluor de Lys as substrate by fluorimetric method
[10] = biological target: T2, Protein deacetylase HDAC6; experiment: Inhibition of human HDAC6 using Z-Lys(Ac)-AMC as substrate by fluorimetric method
[11] = biological target: T4, HDAC1 (histone deacetylase 1) (Homo sapiens, UniProt Q13547); experiment: Inhibition of human HDAC1 at 200 uM using Z-Lys(Ac)-AMC as substrate by fluorimetric method relative to control; conditions: HDAC1 enzyme, probe Z-Lys(Ac)-AMC
T4 sequence (Q13547 whole entry): as the sequence (Q13547 whole entry) above

Histone deacetylase 8 [12] = biological target: T3, Histone deacetylase 8; experiment: Inhibition of Schistosoma mansoni HDAC8 using fluorogenic substrate by fluorescence method
[13] = biological target: T4, HDAC1 (histone deacetylase 1); experiment: Inhibition of human HDAC1 using Z-Lys(Ac)-AMC as substrate at 1 uM by fluorimetric method relative to control; conditions: HDAC1 enzyme, probe Z-Lys(Ac)-AMC
Schistosoma mansoni [14] = experiment: Antischistosomal activity against Schistosoma mansoni BH infected in Balb/c mouse assessed as reduction in worm burden at 400 mg/kg, po measurement after 2 weeks; format: functional; set-up: scale not given: the % may be the effect or the level left
Schistosoma japonicum [15] = experiment: Antischistosomal activity against Schistosoma japonicum at 10 uM incubated for 72 hrs by inverted microscopic method relative to control; format: functional
Schistosoma japonicum [16] = experiment: Antischistosomal activity against juvenile Schistosoma japonicum assessed as reduction in worm vitality at 25 uM incubated for 72 hrs relative to control; format: functional; set-up: scale not given: the % may be the effect or the level left
Schistosoma japonicum [17] = experiment: Antischistosomal activity against Schistosoma japonicum infected in ICR mouse assessed as total worm reduction at 250 mg/kg, po administered as single dose relative to control; format: functional; set-up: scale not given: the % may be the effect or the level left
Schistosoma japonicum [18] = experiment: Antischistosomal activity against adult Schistosoma japonicum assessed as reduction in worm vitality at >10 uM incubated for 48 hrs relative to control; format: functional; set-up: scale not given: the % may be the effect or the level left; conditions: dose microM >10
Schistosoma mansoni [19] = experiment: Antischistosomal activity against Schistosoma mansoni NTS incubated for 72 hrs by microscopic method; format: functional, organism-based
Schistosoma mansoni [20] = experiment: Antischistosomal activity against adult Schistosoma mansoni incubated for 72 hrs by microscopic method; format: functional, organism-based
Schistosoma japonicum [21] = experiment: Antischistosomal activity against Schistosoma japonicum assessed as worm mortality at 10 ug/ml incubated for 72 hrs by microscopic method relative to control; format: functional; conditions: dose 10 µg/ml
[22] = biological target: T5, Cathepsin B1 isotype 1 (Schistosoma mansoni) (UniProt Q8MNY2); experiment: Inhibition of Schistosoma mansoni cathepsin B1 using Z-Phe-Arg-aminomethylcoumarin as substrate at 100 uM by fluorescence method relative to control
T5 sequence (whole entry): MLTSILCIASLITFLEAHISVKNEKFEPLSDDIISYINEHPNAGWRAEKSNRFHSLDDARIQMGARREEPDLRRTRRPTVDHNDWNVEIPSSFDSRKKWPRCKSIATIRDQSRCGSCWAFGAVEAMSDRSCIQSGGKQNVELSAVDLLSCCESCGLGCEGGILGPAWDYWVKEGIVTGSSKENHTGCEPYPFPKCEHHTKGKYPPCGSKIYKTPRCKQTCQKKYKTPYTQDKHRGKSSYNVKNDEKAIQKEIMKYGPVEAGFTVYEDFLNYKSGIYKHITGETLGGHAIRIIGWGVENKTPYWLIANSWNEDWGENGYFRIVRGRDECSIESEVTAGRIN

Q: Which results are given for `C1CCCCCC2(CCCCC1)OOCCCOO2`?
A: Activity (Schistosoma mansoni [1]): 63%; EC50 (Schistosoma mansoni [2]): 16 nM

Q: With `O=C(/C=C/c1ccccc1Sc1ccc(Cl)cc1)NO` as the molecule, how does the IC50 (Histone deacetylase 8 [3]) read?
A: 180 nM

Q: And the IC50 [4]?
A: 3200 nM

Q: And the Activity (Schistosoma mansoni [5])?
A: 97%

Q: And the IC50 (Histone deacetylase 1)?
A: 7700 nM

Q: And the EC50 (Schistosoma mansoni [6])?
A: 11800 nM

Q: What about the IC50 (Histone deacetylase 8 [7]) of the same molecule?
A: 180 nM

Q: What does the source list for `O=C(/C=C/c1ccccc1Oc1c(Cl)cccc1Cl)NO`?
A: IC50 (Histone deacetylase 8 [3]): 470 nM; IC50 [4]: 8200 nM; Activity (Schistosoma mansoni [5]): 89%; IC50 (Histone deacetylase 1): 20200 nM; EC50 (Schistosoma mansoni [6]): 6500 nM; IC50 (Histone deacetylase 8 [7]): 440 nM

Q: How did the Activity (Schistosoma mansoni [8]) turn out when `CC(C)NCC1CCc2cc(CO)c([N+](=O)[O-])cc2N1` (centres undefined) [OXAMNIQUINE] was run?
A: 99.2%

Q: With `O=C(NO)c1cccc(C(=O)NOCc2ccc(Cl)cc2Cl)c1` as the molecule, how does the IC50 (Histone deacetylase 8 [9]) read?
A: 630 nM

Q: What about the IC50 [10] of the same molecule?
A: 5120 nM

Q: And the inhibition at 200 µM [11]?
A: 47.5%

Q: And the IC50 (Histone deacetylase 8 [12])?
A: 400 nM

Q: What about the inhibition at 1 µM [13] of the same molecule?
A: < 10%

Q: Which Activity (Schistosoma mansoni [14]) does the source give for `COc1cc(O)ccc1C(=O)/C=C/c1ccccc1` here?
A: 31.8%

Q: `CCCCCCCCCCOc1cc2c(O)c(C(=O)NCCN(CC)CC)cnc2cc1OCC` was tested. Which Activity (Schistosoma japonicum [15]) did it give?
A: 100%

Q: Which results are given for `O=C(C1CCCCC1)N1CC(=O)N2CCc3c(Br)cccc3C2C1` (centres undefined)?
A: Activity (Schistosoma japonicum [16]): <10%; Activity (Schistosoma japonicum [17]): 54.3%; Activity (Schistosoma japonicum [18]): 100%

Q: `O=C(Nc1cc(C(F)(F)F)ccc1Cl)c1ccccc1O` was tested. Which IC50 (Schistosoma mansoni [19]) did it give?
A: 200 nM

Q: What about the IC50 (Schistosoma mansoni [20]) of the same molecule?
A: 600 nM

Q: `OC(CN1CCCCC1)Cn1c2ccc(Cl)cc2c2cc(Cl)ccc21` (centres undefined) was tested. Which Activity (Schistosoma japonicum [21]) did it give?
A: 100%

Q: For `CCCC(=O)OCCNC(=O)c1ccc(CCl)c([N+](=O)[O-])c1`, which inhibition [22] is on record?
A: < 27%
